Results from patent US7115658B2 (priority 2002, dated 2006).

target: T1, Recombinant HCV polymerase (Hepatitis C virus genotype 1b, UniProt P26663); test: HCV Polymerase Inhibition Assay; format: biochemical; conditions: primer/template-directed transcription, 30 minutes at 30° C.; category symbol
T1 construct: 2.5 pmoles (0.15 μg) HCV polymerase protein
Method in brief: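 Recombinant genotype 1b polymerase (2.5 pmol) extended biotin-dG12 on poly(rC)300 with 1 μM GTP plus α-32P-GTP, pH 7.2, 30 min at 30 °C, 1% DMSO final; DE-filter-bound product counted. IC50 fitted from triplicate cpm, refitted with enzyme-concentration (30 nM) tight-binding equation when below 200 nM.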

T1 sequence (P26663 2420-3010): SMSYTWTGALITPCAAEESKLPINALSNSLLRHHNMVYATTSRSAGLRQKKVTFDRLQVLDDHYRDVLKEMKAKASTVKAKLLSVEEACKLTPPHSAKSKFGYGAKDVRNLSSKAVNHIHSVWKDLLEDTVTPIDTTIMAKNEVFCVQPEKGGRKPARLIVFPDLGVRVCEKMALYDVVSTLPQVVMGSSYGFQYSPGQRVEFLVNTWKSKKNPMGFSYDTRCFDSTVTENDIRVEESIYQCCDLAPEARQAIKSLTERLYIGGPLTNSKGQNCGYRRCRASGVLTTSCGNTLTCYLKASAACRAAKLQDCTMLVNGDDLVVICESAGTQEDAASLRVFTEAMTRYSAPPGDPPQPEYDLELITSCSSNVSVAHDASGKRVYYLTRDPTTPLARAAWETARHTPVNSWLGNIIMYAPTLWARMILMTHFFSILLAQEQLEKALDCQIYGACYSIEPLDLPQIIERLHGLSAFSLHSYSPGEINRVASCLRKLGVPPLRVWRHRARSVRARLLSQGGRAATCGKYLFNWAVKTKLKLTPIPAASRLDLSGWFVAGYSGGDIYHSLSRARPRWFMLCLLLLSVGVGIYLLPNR

`CC(C)(C)OC(=O)NCC(C)(C)c1cccc(CCC2(C3CCCC3)CC(=O)CC(=O)O2)c1` (stereo not drawn) [Example 14, (2-{3-[2-(2-Cyclopentyl-4,6-dioxo-tetrahydro-pyran-2-yl)-ethyl]-phenyl}-2-methyl-propyl)-carbamic acid tert-butyl ester] and `O=C1CC(=O)OC(CCc2ccccc2CO)(C2CCCC2)C1` (stereo not drawn) [Example 6, 6-Cyclopentyl-6-[2-(2-hydroxymethylphenyl)ethyl]dihydropyran-2,4-dione] fall in the same range of IC50: 10 to 50 µM for the first, 10 to 50 µM for the second.

First: COc1ccc(CCC2(C3CCCC3)CC(O)=C(Sc3nc4nc(C)cc(C)n4n3)C(=O)O2)cc1 (stereo not drawn) [Example 92, 6-[2-(4-methoxyphenyl)ethyl]-6-cyclopentyl-3-[(5,7-dimethyl[1,2,4]triazolo[1,5-a]pyrimidin-2-yl)thio]-4-hydroxy-5,6-dihydro-2H-pyran-2-one]
Second: Cc1cc(SC2=C(O)CC(CCc3ccc(O)cc3)(C3CCCCC3)OC2=O)c(C(C)(C)C)cc1OS(=O)(=O)c1ccccc1 (stereo not drawn) [Example 135, Benzenesulfonic acid 5-tert-butyl-4-{6-cyclohexyl-4-hydroxy-6-[2-(4-hydroxy-phenyl)-ethyl]-2-oxo-5,6-dihydro-2H-pyran-3-ylsulfanyl}-2-methyl-phenyl ester]
The IC50 of the first is lower: < 1 µM for the first, 10 to 50 µM for the second. The first is the more potent here.

Compared with `Cc1cc(SC2=C(O)C[C@@](CCc3cccc(O)c3)(C3CCCC3)OC2=O)c(C(C)(C)C)cc1CO` [Example 152, (S)-3-(2-tert-butyl-4-hydroxymethyl-5-methyl-phenylsulfanyl)-6-cyclopentyl-4-hydroxy-6-[2-(3-hydroxy-phenyl)-ethyl]-5,6-dihydro-pyran-2-one], “6-[2-(3-Chloro-4-isopropoxy-phenyl)-ethyl]-6-cyclopentyl-4-hydroxy-3-(4-methoxy-phenylsulfanyl)-5,6-dihydro-pyran-2-one [Example 131]” is lower in IC50: 1 to 10 µM for the first, < 1 µM for the second.

Going from `COc1cc(OC)c(CCC2(C3CCCC3)CC(O)=C(Sc3ccc(C(=O)O)cn3)C(=O)O2)cc1Cl` (stereo not drawn) [Example 94, 6-({6-[2-(5-chloro-2,4-dimethoxyphenyl)ethyl]-6-cyclopentyl-4-hydroxy-2-oxo-5,6-dihydro-2H-pyran-3-yl}thio)nicotinic acid] to `O=C1CC(=O)OC(CCc2nccs2)(C2CCCC2)C1` (stereo not drawn) [Example 12, 6-Cyclopentyl-6-(2-thiazol-2-yl-ethyl)-dihydro-pyran-2,4-dione], the IC50 rises from < 1 µM to > 50 µM. The first is the more potent here.

First: CC(=O)c1ccc(CCC2(C3CCCC3)CC(=O)CC(=O)O2)cc1F (stereo not drawn) [Example 59, 6-[2-(4-Acetyl-3-fluoro-phenyl)-ethyl]-6-cyclopentyl-dihydro-pyran-2,4-dione]
Second: COc1ccc(CCC2(C3CCCC3)CC(O)=C(Sc3nc4ccccc4[nH]3)C(=O)O2)cc1Cl (stereo not drawn) [Example 128, 3-(1H-Benzoimidazol-2-ylsulfanyl)-6-[2-(3-chloro-4-methoxy-phenyl)-ethyl]-6-cyclopentyl-4-hydroxy-5,6-dihydro-pyran-2-one]
The IC50 of the first is higher: 1 to 10 µM for the first, < 1 µM for the second.

First: Cc1cc(SC2=C(O)CC(CCC3CCCC3)(C3CCCC3)OC2=O)c(C(C)(C)C)cc1CO (stereo not drawn) [Example 145, 3-(2-tert-butyl-4-hydroxymethyl-5-methyl-phenylsulfanyl)-6-cyclopentyl-6-(2-cyclopentyl-ethyl)-4-hydroxy-5,6-dihydro-pyran-2-one]
Second: Cn1cccc(CCC2(C3CCCC3)CC(=O)CC(=O)O2)c1=O (stereo not drawn) [Example 37, 6-Cyclopentyl-6-[2-(1-methyl-2-oxo-1,2-dihydro-pyridin-3-yl)-ethyl]-dihydro-pyran-2,4-dione]
The IC50 of the first is lower: 10 to 50 µM for the first, > 50 µM for the second.

Compared with `C=CCOCCC1(C2CCCC2)CC(O)=C(Sc2nc3nc(C)cc(C)n3n2)C(=O)O1` (stereo not drawn) [Example 104, 6-(2-Allyloxy-ethyl)-6-cyclopentyl-3-(5,7-dimethyl-[1,2,4]triazolo[1,5-a]pyrimidin-2-ylsulfanyl)-4-hydroxy-5,6-dihydro-pyran-2-one], `O=C1CC(=O)OC(CCc2ccc(C(=O)N3CCC(O)CC3)cc2)(C2CCCC2)C1` (stereo not drawn) [Example 67, 6-Cyclopentyl-6-(2-[4-(4-hydroxy-piperidine-1-carbonyl)-phenyl]-ethyl}-dihydro-pyran-2,4-dione] is higher in IC50: 10 to 50 µM for the first, > 50 µM for the second.

`CS(=O)(=O)c1ccc(CCC2(C3CCCC3)CC(=O)CC(=O)O2)cc1` (stereo not drawn) [Example 28, 6-Cyclopentyl-6-[2-(4-methanesulfonyl-phenyl)-ethyl]-dihydro-pyran-2,4-dione] and `CC(C)Oc1cccc(CCC2(C3CCCC3)CC(=O)CC(=O)O2)c1` (stereo not drawn) [Example 33, 6-Cyclopentyl-6-[2-(3-isopropoxy-phenyl)-ethyl]-dihydro-pyran-2,4-dione] fall in the same range of IC50: 1 to 10 µM for the first, 1 to 10 µM for the second.

`CC(=O)C1C(=O)CC(CCc2cccc(Cl)c2)(C2CCCC2)OC1=O` (stereo not drawn) [Example 167, 3-Acetyl-6-[2-(3-chloro-phenyl)-ethyl]-6-cyclopentyl-dihydro-pyran-2,4-dione] and `COc1ccccc1CCC1(C2CCCC2)CC(=O)CC(=O)O1` (stereo not drawn) [Example 4, 6-Cyclopentyl-6-[2-(2-methoxyphenyl)ethyl]dihydropyran-2,4-dione] fall in the same range of IC50: 10 to 50 µM for the first, 10 to 50 µM for the second.

Compared with `COc1ccc(CCC2(C3CCCC3)CC(O)=C(Sc3nc4ccccc4o3)C(=O)O2)cc1Cl` (stereo not drawn) [Example 127, 3-(Benzooxazol-2-ylsulfanyl)-6-[2-(3-chloro-4-methoxy-phenyl)-ethyl]-6-cyclopentyl-4-hydroxy-5,6-dihydro-pyran-2-one], `CC(=O)c1ccc(CCC2(C3CCCC3)CC(=O)CC(=O)O2)cc1` (stereo not drawn) [Example 63, 6-[2-(4-Acetyl-phenyl)-ethyl]-6-cyclopentyl-dihydro-pyran-2,4-dione] is higher in IC50: < 1 µM for the first, 1 to 10 µM for the second. The first is the more potent here.

“6-[2-(3-Chloro-4-isopropoxy-phenyl)-ethyl]-6-cyclopentyl-4-hydroxy-3-(thiazol-2-ylsulfanyl)-5,6-dihydro-pyran-2-one [Example 132]” and `CCOc1ccc(CCC2(C3CCCC3)CC(=O)CC(=O)O2)cc1Cl` (stereo not drawn) [Example 44] cannot be ordered by IC50: < 1 µM for the first, < 1 µM for the second.

Compared with `CCCc1ccc(CCC2(C3CCCC3)CC(=O)CC(=O)O2)cc1` (stereo not drawn) [Example 55], `COc1ccc(CCC2(C3CCCC3)CC(O)=C(Sc3nnnn3-c3ccc(O)cc3)C(=O)O2)cc1` (stereo not drawn) [Example 114, 6-Cyclopentyl-4-hydroxy-3-([1-(4-hydroxyphenyl)-1H-tetraazol-5-yl]thio)-6-[2-(4-methoxyphenyl)ethyl]-5,6-dihydro-2H-pyran-2-one] is lower in IC50: 1 to 10 µM for the first, < 1 µM for the second. The second is the more potent here.

`Cc1ccc(S(=O)(=O)Oc2cc(C(C)(C)C)c(SC3=C(O)CC(CCc4ccc(O)cc4)(C4CCCCC4)OC3=O)cc2C)cc1` (stereo not drawn) [Example 137, Toluene-4-sulfonic acid 5-tert-butyl-4-(6-Cyclohexyl-4-hydroxy-6-[2-(4-hydroxy-phenyl)-ethyl]-2-oxo-5,6-dihydro-2H-pyran-3-ylsulfanyl)-2-methyl-phenyl ester] and `CN(C)S(=O)(=O)c1ccc(CCC2(C3CCCC3)CC(=O)CC(=O)O2)cc1` (stereo not drawn) [Example 76, 4-[2-(2-Cyclopentyl-4,6-dioxo-tetrahydro-pyran-2-yl)-ethyl]-dimethyl-benzenesulfonamide] fall in the same range of IC50: 10 to 50 µM for the first, 10 to 50 µM for the second.

Compound `CC(C)(C)c1cc2nc(N)sc2cc1SC1=C(O)CC(C2CCCC2)(C2CCCC2)OC1=O` [Example 183, 3-(2-Amino-5-tert-butyl-benzothiazol-6-ylsulfanyl)-6,6-dicyclopentyl-4-hydroxy-5,6-dihydro-pyran-2-one] has an IC50 of 10 to 50 µM.
